Key:
[1] = test system: Male Laca mice; assay: Porsolt Forced Swim test (behavioural despair test); assay type: in vivo
Experimental: Method: Porsolt Forced Swim test (also called behavioural despair test)
Animals are subjected to two trials during which they are force to swim in an acrylic glass cylinder filled with water and from which they cannot escape. The first trial lasts 15 minutes. Then, after 24-hours, a second trial is performed which lasts 5 minutes. The time that the animal spends without moving in the second trial is measured. This immobility time is decreased by antidepressants.
After some time, the mice give up the attempt to escape from the water and subside into immobility. The duration of the immobility is measured. An animal was considered to be immobile whenever it remained floating passively in the water in a slightly hunched but upright position, its nose above the water surface. […] The total immobility period during the 6-min test was recorded with the help of stopwatch.
The immobility period data obtained from tables 1, 2 and 3 is plotted against the dose administered in FIG. 1, FIG. 2 and FIG. 3 respectively, as shown in the drawing accompanying this specification.
Test Procedures: Porsolt Forced Swim test. Rectangular glass jar (25×12×25 cm^3) containing 15 cm of water maintained at 24±1° C.
The immobility period data obtained from Tables 4, 5, 6 and 7 is plotted against the dose administered in FIG. 4, FIG. 5, FIG. 6 and FIG. 7 respectively, as shown in the drawing accompanying this specification.

[2] = test system: Norepinephrine; assay: Biological amine levels by HPLC-ECD after 45 min: norepinephrine; assay type: in vivo, mice; conditions: fluoxetine 10 mg/kg
Experimental: (§1) Test Substances: […] Animals: Male Laca mice. Test Procedures: Animals were sacrificed after 45 min of drug administration similar to the time period of behavioral observations. HPLC-ECD detector: Mobile phase—Phosphate buffer: […] • Column—ODS-3 C-18 column (250×4.6 mm I.D.; 5 μm particle size)

[3] = test system: Dopamine; assay: Biological amine levels by HPLC-ECD after 45 min: dopamine; assay type: in vivo, mice; conditions: fluoxetine 10 mg/kg
Experimental: as §1

[4] = test system: 5-hydroxytryptamine; assay: Biological amine levels by HPLC-ECD after 45 min: 5-hydroxytryptamine; assay type: in vivo, mice; conditions: fluoxetine 10 mg/kg
Experimental: as §1

[5] = Table 7, tranylcypromine alone 5 mg/kg ip
[6] = Table 6, desipramine alone 5 mg/kg ip
[7] = Table 4, fluoxetine alone 5 mg/kg ip
[8] = Table 5, venlafaxine alone 2 mg/kg ip

## N[C@@H]1C[C@H]1c1ccccc1 (racemic) [Tranylcypromine]
[1]; [5]
  % Decrease in immobility w.r.t vehicle group: 15.15%
  Immobility period: 234 ± 20.41 s

## CNCCCN1c2ccccc2CCc2ccccc21 [Desipramine]
[1]; [6]
  % Decrease in immobility w.r.t vehicle group: 17.46%
  Immobility period: 211.5 ± 21.97 s

## CNCCC(Oc1ccc(C(F)(F)F)cc1)c1ccccc1 (centres unmarked) [Fluoxetine]
[1]; Table 1, fluoxetine 10 mg/kg
  % Decrease in immobility w.r.t saline treated group: 74.30%
  Immobility period: 57 ± 17.45 s
[1]; Table 2, fluoxetine 10 mg/kg
  % Decrease in immobility w.r.t saline treated group: 70.51%
  Immobility period: 57 ± 17.45 s
[1]; Table 3, fluoxetine 10 mg/kg
  % Decrease in immobility w.r.t saline treated group: 70.51%
  Immobility period: 57 ± 17.45 s
[1]; [7]
  % Decrease in immobility w.r.t saline group: 12.30%
  Immobility period: 172.75 ± 10.4 s
[2]
  Norepinephrine % increase w.r.t Control: 40.87%
[2]; n = 5
  Norepinephrine (ng/mg tissue): 4.17 ± 0.23a ng/mg tissue
[3]
  Dopamine % increase w.r.t Control: 12.15%
[3]; n = 5
  Dopamine (ng/mg tissue): 6.09 ± 0.54 ng/mg tissue
[4]
  5-hydroxytryptamine % increase w.r.t Control: 36.52%
[4]; n = 5
  5-hydroxytryptamine (ng/mg tissue): 5.42 ± 0.13 ng/mg tissue

## COc1ccc(C(CN(C)C)C2(O)CCCCC2)cc1 (centres unmarked) [Venlafaxine]
[1]; [8]
  % Decrease in immobility w.r.t vehicle group: 8.69%
  Immobility period: 193.8 ± 13.26 s

Source: patent publication US9259401B2 (priority 2011, dated 2016)
